# Experimental data: ChEMBL document CHEMBL3045530, “Synthesis, antimycobacterial, antiviral, antimicrobial activities, and QSAR studies of isonicotinic acid-1-(substituted phenyl)-ethylidene/cycloheptylidene hydrazides” (Med Chem Res, 2012)
# Experiments:
# [1] = test system: HEL; experiment: Cytostatic against Homo sapiens (human) HEL cells assessed as alteration in cell morphology by microscopy; type: ADME, cell-based
# [2] = test system: Human herpesvirus 3 strain Oka vaccine; experiment: Antiviral activity against Human herpesvirus 3 strain Oka vaccine OKA 07-1 (Varicella zoster virus ) infected in human HEL cells assessed as inhibition of virus-induced cytopathicity; type: functional, organism-based; conditions: Human alphaherpesvirus 3, HEL
# [3] = test system: Vesicular stomatitis virus; experiment: Antiviral activity against Vesicular stomatitis virus infected human HeLa cells assessed as inhibition of virus-induced cytopathicity by microscopy; type: functional, organism-based
# [4] = test system: Human alphaherpesvirus 2; experiment: Antiviral activity against Human herpesvirus 2 strain G infected human HEL cells assessed as inhibition of virus-induced cytopathicity by microscopy; type: functional, organism-based; conditions: Human alphaherpesvirus 2, strain G
# [5] = test system: Human immunodeficiency virus 1; experiment: Antiviral activity against Human immunodeficiency virus 1 IIIB infected MT4 cells assessed as inhibition of virus-induced cytopathic effect after 4 days by MTT assay; type: functional, organism-based; conditions: MT4, 96 h
# [6] = test system: Escherichia coli; experiment: Antimicrobial activity against Escherichia coli after 24 hr by tube dilution method; type: functional
# [7] = test system: Candida albicans; experiment: Antimicrobial activity against Candida albicans after 48 hr by tube dilution method; type: functional
# [8] = Cytotoxicity against Homo sapiens (human) HeLa cells assessed as alteration in cell morphology by microscopy; type: cell-based; conditions: read-out: MTC
# [9] = test system: Human herpesvirus 5 strain AD169; experiment: Antiviral activity against Human herpesvirus 5 strain AD169 Davis infected human HEL cells assessed as inhibition of virus-induced cytopathicity by microscopy; type: functional, organism-based; conditions: Human betaherpesvirus 5, Davis
# [10] = Cytotoxicity against Chlorocebus aethiops (African green monkey) Vero cells assessed as alteration in cell morphology by microscopy; type: cell-based; conditions: chlorocebus sabaeus, read-out: MTC
# [11] = test system: Human alphaherpesvirus 1; experiment: Antiviral activity against Human herpesvirus 1 strain KOS infected human HEL cells assessed as inhibition of virus-induced cytopathicity by microscopy by microscopy; type: functional, organism-based; conditions: Human alphaherpesvirus 1, KOS
# [12] = test system: Mammalian orthoreovirus 1; experiment: Antiviral activity against Mammalian orthoreovirus 1 infected Vero cells assessed as inhibition of virus-induced cytopathicity by microscopy; type: functional, organism-based; conditions: Mammalian orthoreovirus 1, Vero
# [13] = test system: Bacillus subtilis; experiment: Antimicrobial activity against Bacillus subtilis after 24 hr by tube dilution method; type: functional
# [14] = test system: Aspergillus niger; experiment: Antimicrobial activity against Aspergillus niger after 7 days by tube dilution method; type: functional
# [15] = test system: Coxsackievirus B4; experiment: Antiviral activity against Human coxsackievirus B4 infected Vero cells assessed as inhibition of virus-induced cytopathicity; type: functional, organism-based; conditions: Enterovirus B
# [16] = test system: Respiratory syncytial virus; experiment: Antiviral activity against Respiratory syncytial virus infected human HeLa cells assessed as inhibition of virus-induced cytopathicity by microscopy; type: functional, organism-based
# [17] = test system: Human alphaherpesvirus 1; experiment: Antiviral activity against TK(-) aciclovir-resistant Human herpesvirus 1 strain KOS infected in human HEL cells assessed as inhibition of virus-induced cytopathicity; type: functional, organism-based; conditions: Human alphaherpesvirus 1, KOS
# [18] = test system: Vaccinia virus; experiment: Antiviral activity against Vaccinia virus infected human HEL cells assessed as inhibition of virus-induced cytopathicity by microscopy; type: functional, organism-based; conditions: Orthopoxvirus vaccinia
# [19] = Cytotoxicity against Homo sapiens (human) MT4 cells after 4 days by MTT assay; type: cell-based
# [20] = Cytotoxicity against Homo sapiens (human) HEL cells assessed as alteration in cell morphology by microscopy; type: cell-based; conditions: for MCC: read-out: MTC
# [21] = test system: Coxsackievirus B4; experiment: Antiviral activity against Human coxsackievirus B4 infected human HeLa cells assessed as inhibition of virus-induced cytopathicity by microscopy; type: functional, organism-based; conditions: Enterovirus B
# [22] = test system: Staphylococcus aureus; experiment: Antimicrobial activity against Staphylococcus aureus after 24 hr by tube dilution method; type: functional
# [23] = test system: Punta Toro virus; experiment: Antiviral activity against Punta Toro virus infected Vero cells assessed as inhibition of virus-induced cytopathicity; type: functional, organism-based
# [24] = test system: Sindbis virus; experiment: Antiviral activity against Sindbis virus infected Vero cells assessed as inhibition of virus-induced cytopathicity; type: functional, organism-based
# [25] = test system: Human immunodeficiency virus 2; experiment: Antiviral activity against Human immunodeficiency virus type 2 (ISOLATE ROD) infected MT4 cells assessed as inhibition of virus-induced cytopathic effect after 4 days by MTT assay; type: functional, organism-based; conditions: Human immunodeficiency virus 2, ISOLATE ROD, MT4, 96 h
# [26] = test system: Human respirovirus 3; experiment: Antiviral activity against Human parainfluenza virus 3 infected Vero cells assessed as inhibition of virus-induced cytopathicity by microscopy; type: functional, organism-based; conditions: Human respirovirus 3, Vero
Structure (SMILES),Activity [1],EC50 [2],EC50 [3],EC50 [4],EC50 [5],-logMIC [6],-logMIC [7],MCC [8],EC50 [9],MCC [10],EC50 [11],EC50 [12],-logMIC [13],-logMIC [14],EC50 [15],EC50 [16],EC50 [17],EC50 [18],CC50 at 96 h [19],CC50 [20],also measured
C/C(=N\NC(=O)c1ccncc1)c1ccc(Cl)cc1,Toxic,> 20 µg/mL,> 20 µg/mL,> 20 µg/mL,> 88 µg/mL,2.34,2.34,100 µg/mL,> 20 µg/mL,100 µg/mL,> 20 µg/mL,> 20 µg/mL,2.04,2.34,> 20 µg/mL,> 20 µg/mL,> 20 µg/mL,> 20 µg/mL,88 µg/mL,20 µg/mL,MCC [20]: 100 µg/mL; EC50 [21]: > 20 µg/mL; -logMIC [22]: 2.34; EC50 [23]: > 20 µg/mL; EC50 [24]: > 20 µg/mL; EC50 [25]: > 88 µg/mL; EC50 [26]: > 20 µg/mL
O=C(NN=C1CCCCCC1)c1ccncc1 [N'-CYCLOHEPTYLIDENEISONICOTINOHYDRAZIDE],Toxic,> 100 µg/mL,> 100 µg/mL,> 100 µg/mL,> 86 µg/mL,1.36,1.66,> 100 µg/mL,> 100 µg/mL,> 100 µg/mL,> 100 µg/mL,> 100 µg/mL,1.66,1.66,> 100 µg/mL,> 100 µg/mL,> 100 µg/mL,> 100 µg/mL,86 µg/mL,> 100 µg/mL,MCC [20]: > 100 µg/mL; EC50 [21]: > 100 µg/mL; -logMIC [22]: 1.66; EC50 [23]: > 100 µg/mL; EC50 [24]: > 100 µg/mL; EC50 [25]: > 86 µg/mL; EC50 [26]: > 100 µg/mL
